In general, IC50 refers to the midpoint of a concentration-inhibition curve.

The target in one test is T1, CB1 receptor (Homo sapiens, UniProt P21554).
T1 construct: purchased Receptor Biology, Inc
The experiment in a line: In-vitro determination of affinity to CB1/CB2 receptors (radioligand [3H]-CP55940). Conditions: transfected human receptor, binding. As for the experimental part: Pharmacological Data: Pharmacological Methods I. In-Vitro Determination of Affinity to CB1/CB2-Receptors
The in-vitro determination of the affinity of the inventive quaternary ammonium salts of substituted pyrazoline compounds to CB1/CB2-Rezeptors is carried out as described in the publication of Ruth A. Ross, Heather C. Brockie et al., “Agonist-inverse agonist characterization at CB1 and CB2 cannabinoid receptors of L-759633, L759656 and AM630”, British Journal of Pharmacology, 126, 665-672, (1999), whereby the transfected human CB1 and CB2 receptors of Receptor Biology, Inc. are used. The radioligand used for both receptors is [^3H]-CP55940. The respective parts of the description are hereby incorporated by reference and forms part of the present disclosure.
The affinity of the inventive substituted pyrazoline compounds to CB1/CB2 receptors was determined as described above.

The target in test [1] is recombinant human cannabinoid 1 receptor (CB1) (Homo sapiens, UniProt P21554). Put plainly: [35S]GTPγS binding assay, antagonism against WIN 55,212-2. The format is biochemical. Conditions: compound at 1 μM against WIN 55,212-2 dose response; CHO-CB1 membranes; 100% = effect of internal standard CB1-antagonist. As for the experimental part: The percentage of catalepsy is determined according to the following formula: % Catalepsy=arithmetic mean/6×100 Antagonistic Assay: Materials and Methods. Membrane Preparation:
Chinese hamster ovary (CHO) cells stably expressing recombinant human cannabinoid 1 receptor (CB1) were cultured in nutrient mixture Ham's F 12 supplemented with 10% heat-inactivated fetal bovine serum, 2 mM L-glutamine, 50 U/ml penicillin, 50 U/ml streptomycin and 0.5 mg/ml geneticin. In order to obtain cells, culture flasks were washed twice with phosphate buffered saline and scraped. Then, cells were collected by centrifugation (200×g, 10 min) and stored dry at −80° C. Cells were homogenized in ice-cold 20 mM HEPES, 10 mM EDTA (pH 7.5) and centrifuged at 40,000×g for 15 min at 4° C. The pellet was resuspended in 20 mM HEPES, 0.1 mM EDTA (pH 7.5) and centrifuged for 15 min at 4° C. The final pellet was resuspended in 20 mM HEPES, 0.1 mM EDTA (pH 7.5), and divided in aliquots and stored at −80° C. until use.
[^35S]GTPγS Binding Assay:
The reaction was performed in 96-well plates. Membranes (15 µg protein/well) were incubated for 60 min at 30° C. in buffer (50 mM HEPES, 100 mM KCl, 5 mM MgCl2, 1 mM EDTA, 0.1% wt/vol bovine serum albumin, 5 μM GDP, saponin (10 μg/ml), 0.5 nM [^35S]GTPγS, pH 7.4) with compound at 1 μM final concentration in either the absence or presence of dose response curve of agonist WIN 55,212-2 between 3 nM and 3 μM. The incubation was terminated by rapid filtration through Millipore Multiscreen glass fiber FB, and rinsed two-times with ice-cold assay buffer. Filter plates were dried and 30 μl of scintillation liquid was added. Radioactivity was determined using Wallac Microbeta Trilux. Each experiment was performed at least in duplicate. A WIN 55,212-2 dose-response was systematically performed.
The average of basal [^35S]GTPγS binding was subtracted from all binding data. In order to compare the antagonism results from one screening campaign to another one, the difference between the maximal agonist effect of WIN 55,212-2 alone, and the maximal antagonism effect due to WIN 55,212-2 with an internal standard CB1-antagonist was defined as 100%.

recombinant human cannabinoid 1 receptor (CB1), sequence (P21554 whole entry): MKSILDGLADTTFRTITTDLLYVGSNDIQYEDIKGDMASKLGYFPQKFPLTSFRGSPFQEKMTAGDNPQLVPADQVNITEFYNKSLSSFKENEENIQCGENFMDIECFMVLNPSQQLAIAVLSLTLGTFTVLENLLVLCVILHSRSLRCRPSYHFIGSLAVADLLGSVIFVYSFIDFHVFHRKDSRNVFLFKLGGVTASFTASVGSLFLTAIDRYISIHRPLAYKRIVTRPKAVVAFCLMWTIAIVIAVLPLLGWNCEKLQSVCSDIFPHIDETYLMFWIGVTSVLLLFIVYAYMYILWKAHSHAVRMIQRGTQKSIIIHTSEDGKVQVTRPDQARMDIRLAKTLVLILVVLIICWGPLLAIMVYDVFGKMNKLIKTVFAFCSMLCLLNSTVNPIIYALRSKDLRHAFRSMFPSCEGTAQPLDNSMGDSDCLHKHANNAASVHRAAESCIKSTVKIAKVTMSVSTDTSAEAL
T1 sequence (P21554 whole entry): as above

Consider `C[C@@H]1C(C(=O)NN2CCc3ccccc32)=NN(c2ccc(Cl)cc2Cl)[C@H]1c1ccc(Br)cc1` (relative stereo) [Example 7, trans-5-(4-bromophenyl)-1-(2,4-dichlorophenyl)-N-(indolin-1-yl)-4-methyl-4,5-dihydro-1H-pyrazole-3-carboxamide], for which, at CB1 receptor, the IC50 is 39 nM. Moreover, the “Antagonism (%)” value in test [1] came out at 67 ± 3%.
In the case of `C[C@H]1C(C(=O)NN2CCc3ccccc32)=NN(c2ccc(Cl)cc2Cl)[C@H]1c1ccc(F)cc1` (relative stereo) [Example 8, cis-1-(2,4-dichlorophenyl)-5-(4-fluorophenyl)-N-(indolin-1-yl)-4-methyl-4,5-dihydro-1H-pyrazole-3-carboxamide], the “Antagonism (%)” value in test [1] was 48%.
In the case of `C[C@H]1C(C(=O)NN2CCc3ccccc32)=NN(c2ccc(Cl)cc2Cl)[C@H]1c1ccc(Cl)cc1` [Example 3, (4R,5R)-5-(4-chlorophenyl)-1-(2,4-dichlorophenyl)-N-(indolin-1-yl)-4-methyl-4,5-dihydro-1H-pyrazole-3-carboxamide], at CB1 receptor, the IC50 amounted to 100 nM. Besides, the “Antagonism (%)” value in test [1] is given as 70%.
For `CC1Cc2ccccc2N1NC(=O)C1=NN(c2ccc(Cl)cc2Cl)[C@@H](c2ccc(Cl)cc2)[C@H]1C` (relative stereo) [Example 5, cis-5-(4-chlorophenyl)-1-(2,4-dichlorophenyl)-4-methyl-N-(2-methylindolin-1-yl)-4,5-dihydro-1H-pyrazole-3-carboxamide], the IC50 at CB1 receptor came out at 128 nM. In addition, the “Antagonism (%)” value in test [1] was found to be 16 ± 15%.
